Laboratory results as given in patent US11186807B2, “Reducing acetate ester production in yeast” (VIB VZW, priority 2017, dated 2021).

System: respiration in yeast (S288c and Hybrid A)
Test: Acetate ester production in mini-scale yeast fermentation with or without Antimycin A
Assay type: cell-based, Saccharomyces cerevisiae
Details: 3 mg/L Antimycin A in medium; genetic backgrounds S288c and Hybrid A; FIG. 7B
Text: One of the main functions of the IMP complex is processing of subunits of the respiration chain. Given the surprising finding that genetic inference with the IMP complex reduces the production of acetate esters (see Example 5 and 8), we wondered whether respiration in general modulates acetate ester production. First, yeasts strains were developed in which five genes known to be crucial for respiration (i.e. CBS1, COR1, COX9, QCR9 and COX12) were separately deleted and subsequently were used in a fermentation experiment to determine aroma production. All selected genes function independently from the IMP complex. […] More precisely, an experiment was performed in which acetate ester production of a yeast strain was measured in medium with or without supplementation of 3 mg/L Antimycin A, a chemical compound blocking the respiratory pathway (Kim et al 1999 J Am Chem Soc 121:4902). […]
Phenotyping of the individual segregants for IA production was performed using an in situ approach, and was conducted as follows: the segregants were streaked from the −80° C. stock on YPGlu 2% agar plates for 48 h at 30° C. […] After 96 h, the fermentation was ended, excess CO2 was once again released by brief opening of the vials, and the vials were measured using gas chromatography (see further). […]

## Antimycin A
  drop of isoamyl acetate production: about 50%
